Measured values reported in patent publication US20240132484A1, “BROAD SPECTRUM ANTIVIRAL COMPOUNDS TARGETING THE SKI COMPLEX” (priority 2020, published 2024).
Where two headings read alike, the source gives them in different places.

Tests used:
SARS2 = type: cell-based, SARS-CoV-2
WDR61 = WDR61 (Homo sapiens, UniProt Q9GZS3); assay: Surface Plasmon Resonance with pure WDR61 protein
Influenza virus = assay: organism not typed; type: cell-based, influenza A virus; conditions: for Flu titer (pfu/ml) / Influenza virus titer, 10 μM / Influenza virus titer, 50 μM: plaque assay; for Avg PFU/ml: average of first and second experiment; for Influenza virus titer, 10 μM / Influenza virus titer, 50 μM: upper part of table (FIG. 5 data); for 10 μM treatment, Average / 50 μM treatment Average: average of replicates
[1] = 50 μM compound, replicate 1, DMSO (0.5%) control run per batch

Compound: CN1CCN(CC(O)COc2c(CNCCc3ccccc3F)cccc2C2CCCCC2)CC1 (stereo not drawn) [SILCS4]
- Percentage Inhibition Average 1 μM (SARS2; SARS2, 1 μM): 17.51%
- Screening data (Relative infection to DMSO controls) Average 1 μM (SARS2; SARS2, 1 μM, 100=DMSO control): 82.49
- Percentage Inhibition Average 5 μM (SARS2; SARS2, 5 μM): 59.94%
- Screening data (Relative infection to DMSO controls) Average 5 μM (SARS2; SARS2, 5 μM, 100=DMSO control): 40.06
- Percentage Inhibition Average 10 μM (SARS2; SARS2, 10 μM): 86.21%
- Screening data (Relative infection to DMSO controls) Average 10 μM (SARS2; SARS2, 10 μM, 100=DMSO control): 13.79
- Percentage Inhibition Average 25 μM (SARS2; SARS2, 25 μM): 81.29%
- Screening data (Relative infection to DMSO controls) Average 25 μM (SARS2; SARS2, 25 μM, 100=DMSO control): 18.71
- Percentage Inhibition Average 50 μM (SARS2; SARS2, 50 μM): 90.83%
- Screening data (Relative infection to DMSO controls) Average 50 μM (SARS2; SARS2, 50 μM, 100=DMSO control): 9.17
- Average (relative infection to DMSO over the 5 tested concentrations) (SARS2; SARS2, average over 1 to 50 uM, 100=DMSO control): 32.84
- Relative cell count to DMSO controls, Average 1 μM (cells (nuclei count); 1 μM, toxicity data, 100=DMSO control): 116.22
- Relative cell count to DMSO controls, Average 5 μM (cells (nuclei count); 5 μM, toxicity data, 100=DMSO control): 123.91
- Relative cell count to DMSO controls, Average 10 μM (cells (nuclei count); 10 μM, toxicity data, 100=DMSO control): 122.04
- Relative cell count to DMSO controls, Average 25 μM (cells (nuclei count); 25 μM, toxicity data, 100=DMSO control): 3.91
- Relative cell count to DMSO controls, Average 50 μM (cells (nuclei count); 50 μM, toxicity data, 100=DMSO control): 2.18
- Toxicity Data, Average, Mean (relative to DMSO control) (cells (nuclei count); Average of Exp 1-3, 1 uM): 116.22%
- Toxicity Data, Average, Mean (relative to DMSO control) (cells (nuclei count); Average of Exp 1-3, 5 uM): 123.91%
- Toxicity Data, Average, Mean (relative to DMSO control) (cells (nuclei count); Average of Exp 1-3, 10 uM): 122.04%
- Toxicity Data, Average, Mean (relative to DMSO control) (cells (nuclei count); Average of Exp 1-3, 25 uM): 3.91%
- Toxicity Data, Average, Mean (relative to DMSO control) (cells (nuclei count); Average of Exp 1-3, 50 uM): 2.18%
- Relative cell count to DMSO controls, Average (for correlation analysis) (cells (nuclei count); average value over the 5 tested concentrations (1 to 50 uM)): 73.65
- direct binding to WDR61 by SPR (WDR61): binding directly to WDR61

Compound: COc1ccccc1Cn1cc(C(=O)NCCC2=CCCCC2)c(=O)c(C(=O)N(CCO)C(C)C)c1 [Compound 55345532, N′-[2-(1-cyclohexen-1-yl)ethyl]-N-(2-hydroxyethyl)-N-isopropyl-1-(2-methoxybenzyl)-4-oxo-1,4-dihydro-3,5-pyridinedicarboxamide]
- Flu titer (pfu/ml) (Influenza virus; 1 μM compound, A549 cells): 55000 pfu/ml
- Flu titer (pfu/ml) (Influenza virus; 10 μM compound, A549 cells): 70000 pfu/ml
- Flu titer (pfu/ml) (Influenza virus; 50 μM compound, A549 cells): 34000 pfu/ml

Compound: COc1ccc(CNCC2CCCCC2)c(OCC(O)CN2CCN(C)CC2)c1 (stereo not drawn) [Compound 18-5]
- first experiment (Influenza virus; 10 μM screen): 60000 PFU/ml
- second experiment (Influenza virus; 10 μM screen): 500 PFU/ml
- Avg PFU/ml (Influenza virus; 10 μM screen): 30250 PFU/ml
- Influenza virus titer, 10 μM (Influenza virus): 60000 PFU/virus/ml
- first experiment PFU/ml (Influenza virus; 50 μM screen): 2100 PFU/ml
- second experiment PFU/ml (Influenza virus; 50 μM screen): 400 PFU/ml
- Avg PFU/ml (Influenza virus; 50 μM screen): 1250 PFU/ml
- Influenza virus titer, 50 μM (Influenza virus): 2100 PFU/virus/ml

Compound: O=C(CN1CC(c2ccccc2)CC1=O)NCc1nnc(SCC2CCCCC2)n1-c1ccc(F)cc1 (stereo not drawn) [Compound 68125364, N-{[5-[(cyclohexylmethyl)thio]-4-(4-fluorophenyl)-4H-1,2,4-triazol-3-yl]methyl}-2-(2-oxo-4-phenyl-1-pyrrolidinyl)acetamide]
- Flu titer (pfu/ml) (Influenza virus; 1 μM compound, A549 cells): 72000 pfu/ml
- Flu titer (pfu/ml) (Influenza virus; 10 μM compound, A549 cells): 62000 pfu/ml
- Flu titer (pfu/ml) (Influenza virus; 50 μM compound, A549 cells): 79000 pfu/ml

Compound: COc1ccc(CNCCc2ccccc2F)c(OCC(O)CN2CCN(C)CC2)c1 (stereo not drawn) [Compound 96509034, 1-[2-({[2-(2-fluorophenyl)ethyl]amino}methyl)-5-methoxyphenoxy]-3-(4-methyl-1-piperazinyl)-2-propanol]
- Flu titer (pfu/ml) (Influenza virus; 1 μM compound, A549 cells): 10000 pfu/ml
- Flu titer (pfu/ml) (Influenza virus; 10 μM compound, A549 cells): 4000 pfu/ml
- Flu titer (pfu/ml) (Influenza virus; 50 μM compound, A549 cells): 5000 pfu/ml

Compound: COc1ccc(CNCCc2ccccc2C)c(OCC(O)CN2CCN(C)CC2)c1 (stereo not drawn) [UMB40]
- antiviral activity against IAV infection (Influenza virus; screening, A549 cells): showed a degree of antiviral activity

Compound: COC(=O)C1CCN(CC(O)COc2cccc(CN(C)Cc3cc(C)no3)c2)CC1 (stereo not drawn) [Compound 62396835, methyl 1-{2-hydroxy-3-[3-({methyl[(3-methyl-5-isoxazolyl)methyl]amino}methyl)phenoxy]propyl}-4-piperidinecarboxylate]
- Flu titer (pfu/ml) (Influenza virus; 1 μM compound, A549 cells): 66000 pfu/ml
- Flu titer (pfu/ml) (Influenza virus; 10 μM compound, A549 cells): 71000 pfu/ml
- Flu titer (pfu/ml) (Influenza virus; 50 μM compound, A549 cells): 30000 pfu/ml

Compound: O=C(NC1CCCCCC1)c1cn[nH]c1-c1ccc2c(c1)OCCO2 [UMB98]
- 10 μM treatment, Average (Influenza virus): 0
- 10 μM treatment (Influenza virus; replicate 2): 0
- 50 μM treatment Average (Influenza virus; 50 μM compound): 0
- 50 μM treatment (Influenza virus; [1]): 0
- 50 μM treatment (Influenza virus; 50 μM compound, replicate 2): 0

Compound: O=C(CCCc1ccccc1)Nc1cccc(N2CCC(NCCCn3nnc4ccccc43)CC2)c1 [Compound 84256405, N-[3-(4-{[3-(1H-1,2,3-benzotriazol-1-yl)propyl]amino}-1-piperidinyl)phenyl]-4-phenylbutanamide]
- Flu titer (pfu/ml) (Influenza virus; 1 μM compound, A549 cells): 50000 pfu/ml
- Flu titer (pfu/ml) (Influenza virus; 10 μM compound, A549 cells): 140000 pfu/ml
- Flu titer (pfu/ml) (Influenza virus; 50 μM compound, A549 cells): 210000 pfu/ml

Compound: COc1ccc(CNCCc2ccccc2C)c(OCC(O)CN2CCN(C)CC2)c1 (stereo not drawn) [Compound 18-2]
- first experiment (Influenza virus; 10 μM screen): 500 PFU/ml
- second experiment (Influenza virus; 10 μM screen): 1900 PFU/ml
- Avg PFU/ml (Influenza virus; 10 μM screen): 1200 PFU/ml
- Influenza virus titer, 10 μM (Influenza virus): 500 PFU/virus/ml
- first experiment PFU/ml (Influenza virus; 50 μM screen): 1700 PFU/ml
- second experiment PFU/ml (Influenza virus; 50 μM screen): 100 PFU/ml
- Avg PFU/ml (Influenza virus; 50 μM screen): 900 PFU/ml
- Influenza virus titer, 50 μM (Influenza virus): 1700 PFU/virus/ml

Compound: CC1=C(C(=O)OC2CCCCCCC2)C(c2ccc3c(c2)OCO3)NC(=O)N1 (stereo not drawn) [UMB115]
- 10 μM treatment, Average (Influenza virus): 3500
- 10 μM treatment (Influenza virus; replicate 2): 5000
- 50 μM treatment Average (Influenza virus; 50 μM compound): 0
- 50 μM treatment (Influenza virus; [1]): 0
- 50 μM treatment (Influenza virus; 50 μM compound, replicate 2): 0

Compound: COc1ccc(CNCCc2cccnc2)c(OCC(O)CN2CCCCCCC2)c1 (stereo not drawn) [Compound 18-9]
- first experiment (Influenza virus; 10 μM screen): 200000 PFU/ml
- second experiment (Influenza virus; 10 μM screen): 9000 PFU/ml
- Avg PFU/ml (Influenza virus; 10 μM screen): 104500 PFU/ml
- Influenza virus titer, 10 μM (Influenza virus): 200000 PFU/virus/ml
- first experiment PFU/ml (Influenza virus; 50 μM screen): 20000 PFU/ml
- second experiment PFU/ml (Influenza virus; 50 μM screen): 2600 PFU/ml
- Avg PFU/ml (Influenza virus; 50 μM screen): 11300 PFU/ml
- Influenza virus titer, 50 μM (Influenza virus): 20000 PFU/virus/ml

Compound: COc1ccc(CNCCc2ccccc2)c(OCC(O)CN2CCN(C)CC2)c1 (stereo not drawn) [Compound 18-6]
- first experiment (Influenza virus; 10 μM screen): 10000 PFU/ml
- second experiment (Influenza virus; 10 μM screen): 500 PFU/ml
- Avg PFU/ml (Influenza virus; 10 μM screen): 5250 PFU/ml
- Influenza virus titer, 10 μM (Influenza virus): 10000 PFU/virus/ml
- first experiment PFU/ml (Influenza virus; 50 μM screen): 1300 PFU/ml
- second experiment PFU/ml (Influenza virus; 50 μM screen): 300 PFU/ml
- Avg PFU/ml (Influenza virus; 50 μM screen): 800 PFU/ml
- Influenza virus titer, 50 μM (Influenza virus): 1300 PFU/virus/ml

Compound: CCN(CC)CCNCc1ccccc1OCC(O)CN1CCSCC1 (stereo not drawn) [Compound 86006211, 1-[2-({[2-(diethylamino)ethyl]amino}methyl)phenoxy]-3-(4-thiomorpholinyl)-2-propanol]
- Flu titer (pfu/ml) (Influenza virus; 1 μM compound, A549 cells): 70000 pfu/ml
- Flu titer (pfu/ml) (Influenza virus; 10 μM compound, A549 cells): 60000 pfu/ml
- Flu titer (pfu/ml) (Influenza virus; 50 μM compound, A549 cells): 12000 pfu/ml
